Reference: patent US12594292B2, “Antiviral prodrugs, intermediate-and long-acting formulations and methods” (priority 2022, dated 2026)

Assays:
PSC-human lung cells = assay: Cell viability assay CellTiter-Glo, PSC-human lung cells (Example 7)
Calu-3 cells [1] = assay: Cytotoxicity in Calu-3 cells, nuclei count or CellTiter-Glo (Example 6); conditions: for select compounds up to 100 μM by CellTiter-Glo
Description: After which an equal volume of CellTiter-Glo reagent (Cat. #G7570, Promega, Madison, WI) was added, mixed and luminescence recorded on a Veritas Microplate Luminometer (Turner BioSystems) according to manufacturer recommendations.

SRV A2 strain of RSV = assay: RSV infection in Hep-2 cells, CPE reduction; format: cell-based, respiratory syncytial virus; conditions: RSV A2 in Hep-2 cells, 72 to 96 hours
Description: Methods: The SRV A2 strain of RSV was obtained from the ATCC. Ten thousand Hep-2 cells were seeded into each well of a 96-well plate in EMEM with 10% fetal bovine serum and 1% penicillin and streptomycin. Each well was inoculated with 100 TCID50 of virus. Two hours later wells were washed once with medium and serial four-fold dilutions of candidate antiviral drugs were added.

TMPRSS2-Vero cells = assay: Cytotoxicity in TMPRSS2-Vero cells, nuclei count (Example 6); format: cell-based
VERO E6 cells = assay: CellTiter-Glo luminescent cell viability assay, Vero E6 (Example 3); format: cell-based
[2] = system: SARS-CoV-2 isolate USA-WA1/2020; assay: SARS-CoV-2 infection in Huh7.5 cells, qRT-PCR (Example 7); format: cell-based
[3] = system: SARS-CoV-2 isolate USA-WA1/2020; assay: SARS-CoV-2 infection in Caco-2 cells, qRT-PCR (Example 7); format: cell-based
[4] = system: SARS-CoV-2 isolate USA-WA1/2020; assay: SARS-CoV-2 infection in Vero E6 cells, qRT-PCR (Example 7); format: cell-based
[5] = system: SARS-CoV-2 isolate USA-WA1/2020; assay: SARS-CoV-2 infection in Vero E6 cells, qRT-PCR of Spike RNA (Example 3); format: cell-based
HCoV-229E = format: cell-based, human Coronavirus 229E
Calu-3 cells [6] = assay: Cell viability assay CellTiter-Glo, Calu-3 cells (Example 7); conditions: Calu-3 cells, CellTiter-Glo
Huh7.5 cells = assay: Cytotoxicity in Huh7.5 cells, nuclei count (Example 6); format: cell-based, human
[7] = Caco-2 cells, MOI 0.01, 48 hours
[8] = Vero E6 cells, MOI 0.01, 48 hours, mean±SD
[9] = based on the EC50 values, Vero E6

SMILES: CCCCCCCCCCCCCCCCCCOC[C@H](COP(=O)(O)OC[C@H]1O[C@@](C#N)(c2ccc3c(N)ncnn23)[C@H](O)[C@@H]1O)OCc1ccccc1 [Compound 15d, 1-O-octadecyl-2-O-benzyl-sn-glyceryl-phospho-RVn]
- CC50 (PSC-human lung cells): 61500 nM
- CC50 (Calu-3 cells [1]): > 20000 nM
- EC50 (SRV A2 strain of RSV): 10 nM
- EC90 (SRV A2 strain of RSV): 19 nM
- CC50 (TMPRSS2-Vero cells): > 20000 nM
- CC50 (VERO E6 cells): 46000 nM
- Selectivity ([2]; CC50/EC50, Huh7.5 cells): 449
- EC90 ([2]; Huh7.5 cells, MOI 0.01, 48 hours, qRT-PCR (Example 7)): 150 nM
- EC50 ([2]; Huh7.5 cells, MOI 0.01, 48 hours, qRT-PCR (Example 7), listed as ODBG-P-RVn): 140 nM
- Selectivity ([3]; CC50/EC50, Caco-2 cells): 295
- EC50 [3, 7]: 300 nM
- EC90 [3, 7]: 330 nM
- Selectivity ([4]; CC50/EC50, Vero E6 cells): 699
- EC50 ([4]; Vero E6 cells, MOI 0.01, 48 hours): 140 nM
- EC90 ([4]; Vero E6 cells, MOI 0.01, 48 hours, listed as ODBG-P-RVn, 15d): 160 nM
- Selectivity ([5]; CC50/EC50, Vero E6): 240
- EC50 [5, 8]: 190 ± 23 nM
- EC90 [5, 8]: 560 ± 0.2 nM
- times more active than RDV [5, 9]: 24
- times more active than RVn [5, 9]: 8.9
- CC50 (MRC-5 cells): 43100 ± 18900 nM
- EC50 (HCoV-229E): 100 nM
- EC90 (HCoV-229E): 280 ± 13 nM
- CC50 (Calu-3 cells [6]): 98200 nM
- CC50 (Huh7.5 cells): > 20000 nM
